Measurements from patent US9029553B2, “2-anilino nicotinyl linked 2-amino benzothiazole conjugates and process for the preparation thereof” (Council of Scientific & Industrial Research, priority 2011, dated 2015).
Entries after “also recorded” stand apart in the source; their conditions may differ.

What was measured:
HL-60 cells [1] = assay: Flow cytometric analysis of reactive oxygen species (DCFH-DA); type: cell-based, human; conditions: 1 μM, 24 hr, HL-60
Protocol: It was clear that these compounds were cytotoxic and induce apoptosis in HL-60 cells, now we have to found out the early events which were responsible for the induction of apoptosis like reactive oxygen species (ROS) or nitric oxide (NO) generation. Intracellular peroxide (ROS) in the cells was measured by DCFH-DA by using flow cytometry. Cells were incubated with tested compounds at 1 μM for 24 h in HL-60 cells and analyzed by flow cytometry after double staining with DCFH-DA (FIG. 7). Cells were analyzed for fluorescence intensity in FL1 vs. cell count. There was hardly any DCF fluorescence (ROS positive cells) in the untreated HL-60 cells, and this status remained unchanged when cells were incubated for 24 hr with compounds 7 and 8. […] Compounds 4 and 6 also induce the generation of peroxide in HL-60 cells (31 and 16% increase, respectively).

topoisomerase II = assay: DNA topoisomerase-II inhibition assay; type: biochemical; conditions: 1 μM; etoposide 100 μM
From the text: DNA topoisomerases are nuclear enzymes capable of resolving the topology of DNA to allow its replication. So, proper relaxing is very important for successful replication cycle and thus for the cell survival. However, topoisomerases also serve as targets in the anticancer chemotherapy in which cell death serves an important purpose. Moreover, the topoisomerase targeting drugs can either be classified either topo posions, which act by stabilizing enzyme DNA cleavable complexes leading to DNA break or topo catalytic inhibitors, which act by stabilizing enzyme where both DNA strands remain intact and no DNA breaks occur. Importantly, all the topoisomerase inhibitors finally induce apoptosis. In the present study, all the five compounds 4-8 were first subjected to topoisomerase II inhibition assay.

PARP = assay: Western blot of cell death targets; type: cell-based, human; conditions: 1 μM, 24 h, HL-60
Protocol: Apoptosis was further characterized by the western blot analysis. Cells were treated with tested compounds at 1 μM for 24 h and expression of key apoptotic proteins like NF-kB, survivin; PARP, Bcl-2 and HSP-90 were analyzed through western blot. Both NF-kB and survivin are highly expressed in HL-60 cells. NF-kB is a transcriptional factor regulating the expression of several genes in the cells whereas survivin is a cell cycle regulated inhibitor of apoptosis protein (IAP), mostly over expressed in most of the tumors.
During apoptotic stimuli activated caspase-3 appears to cause DNA fragmentation through activation of caspase activated DNAse (CAD) in the nucleus of the cells. […] Cancer cells have very high level of heat shock proteins. These are molecular chaperones expressed constitutively under normal conditions to maintain protein homeostasis and are induced upon environmental stress.

[2] = system: normal monkey kidney CV-1 cells; assay: MTT cytotoxicity in normal cells; type: cell-based; conditions: Primates
Protocol: These compounds were also evaluated for their cytotoxic potential in normal cells and for these purpose their IC50 value were also determine in normal monkey kidney CV-1 cells by using MTT method. The ratios of normal to cancer cells IC50 value were ranges from 10-1000 times (Table 5).

HL-60 cells [3] = assay: Cell cycle analysis (FACS) by flow cytometry; type: cell-based, human; conditions: 1 μM, up to 24 h
From the text: The damage was more apparent with compound 8 and 6 (90% and 60% DNA damaged, respectively).

HL-60 cells [4] = assay: Annexin V-FITC flow cytometric analysis of apoptosis and necrosis; type: cell-based, human; conditions: 1 μM, 24 h
Protocol: During apoptosis an important biochemical change that take place in cells undergoing is flipping of phosphatidyl serine lipid from the inner leaflet of the cellular membrane to the outer one.
Annexin V a calcium dependent phospholipids binding protein has a high affinity for PS. […] Compounds 4-8 at 1 μM were treated with HL-60 cells were incubated for 24 h and the extent of apoptosis vs. necrosis was analyzed from the quadrant analysis of cell population with Annexin V-FITC. Both the apoptotic and post apoptotic cell populations increased in HL-60 cells.

RPMI-8226 = assay: NCI SRB GI50 screen; type: cell-based; conditions: Homo sapiens, Leukemia, 48 hrs exposure, read-out: Growth Inhibition GI50 RPMI-8226
Protocol: 2-Anilino nicotinyl linked 2-amino benzothiazole conjugates of formula 9-12 were tested against fifty nine human cancer cell lines derived from nine cancer types (leukemia, non-small cell lung cancer, colon cancer, CNS cancer, melanoma, ovarian cancer, renal cancer, prostate cancer and breast cancer) as per NCI protocol. For each compound, dose response curves for individual cell lines were measured at a minimum of five concentrations at 10 fold dilutions. A protocol of 48 hrs continuous drug exposure was used, and a sulforhodamine B (SRB) protein assay was used to estimate cell viability or growth.

Structure (SMILES)	DCF fluorescence (ROS positive cells), in words (HL-60 cells [1])	topoisomerase-II inhibition (DNA relaxation) (topoisomerase II)	PARP cleavage (western blot) (PARP)	IC50 [2] [µM]	DNA damaged (sub-G0 fraction) (HL-60 cells [3]) [%]	apoptotic cells (Annexin V-FITC) (HL-60 cells [4])	GI50 (RPMI-8226) [µM]
O=C(Nc1nc2ccc([N+](=O)[O-])cc2s1)c1cccnc1Nc1cc(F)c(F)c(F)c1 [Compound 8, N3-(6-nitro-1,3-benzothiazol-2-yl)-2-[(3,4,5-trifluorophenyl)amino]-3-pyridine carboxamide]	unchanged	more potent effect relative to etoposide; also recorded: maximum inhibition	highest potential	> 100	90	around 70%	–
COc1ccc2nc(NC(=O)c3cccnc3Nc3cc(OC)c(OC)c(OC)c3)sc2c1 [Compound 12, N-3-(6-methoxy-1,3-benzothiazol-2-yl)-2-(3,4,5-trimethoxyanilino) nicotinamide]	–	–	–	–	–	–	9.94
